Here are results for 7 compounds from patent publication US20090209560A1, “ANTI-INFLAMMATION ACTIVITY OF NEWLY SYNTHESIZED XANTHINE DERIVATIVES KMUP-1 AND KMUP-3” (KAOHSIUNG MEDICAL UNIVERSITY, priority 2006, published 2009).

Molecules are shown by their SMILES.

Common to all, as to format: cell-based, rat
In one test the test system is cAMP. Put plainly: Intracellular cAMP level in TSMCs (radioimmunoassay). The note with it: FIG. 10(B). On the procedure:
(§1) The tracheal smooth muscle cell (TSM) culture is prepared from male Wistar rats purchased from the National Laboratory Animal Breeding and Research Center (Taipei, Taiwan).
(§2) The Wistar rats were injected intraperitoneally with a lethal dose of pentobarbital. The tracheas were excised and cut longitudinally through the cartilage. Using a dissecting microscope, TSM strips were dissected from the surrounding parenchyma. The epithelium was removed from the luminal surface, and bands of TSM were gently separated from the underlying connective tissue. The TSM strips were then chopped into small sections (1 mm^3) and incubated in Hank's balanced salt solution (NaCl, 138 mM; NaHCO3, 4 mM; KCl, 5 mM; KH2PO4, 0.3 mM; Na2HPO4, 0.3 mM; glucose, 1.0 mM) with 0.05% elastase type IV and 0.2% collagenase type IV (Invitrogen, Carlsbad, Calif.) for 30 min at 37° C. with gentle shaking. The solution of dissociated smooth muscle cells was centrifuged (6 min at 500 g) and the pellet was resuspended in 1:1 Dulbecco's modified Eagle's medium-Ham's F-12 medium supplemented with 10% fetal bovine serum (FBS), 0.244% NaHCO3, and 1% penicillin/streptomycin. Cells were cultured in a condition with or without KMUP-1, KMUP-3 and other negative or positive control agents, in 25 cm^2 flasks at 37° C. in humidified air containing 5% CO2. The medium was changed every 2-3 days.
(§3) Intracellular cGMP production was decreased and reaching minimal production at 9 hr in TSMCs in the presence of TNF-α (100 ng/ml). Intracellular concentrations of cAMP and cGMP in TSMC were measured to investigate the effects of KMUP-1, KMUP-3, and the other PDE5 inhibitor zaprinast or the isoproterenol thereto. As to the level of cGMP, TSMCs were pretreated with KMUP-1, KMUP-3, and the other PDE5 inhibitor zaprinast for 20 minutes and were further incubated in the presence of TNF-α (100 ng/ml) for 9 hrs. The concentrations of cGMP of each sample were measured using cGMP-[125I] radioimmunoassay kits (GE Healthcare Bio-Sciences Corp., Piscataway, N.J.). […] As to the level of the cAMP, TSMCs were incubated with isoproterenol, KMUP-1, and KMUP-3 for 20 min, and further incubated in the absence or presence of TNF-α (100 ng/ml) for 9 hrs, where the concentrations of cAMP of each sample were measured using cAMP-[125I] radioimmunoassay kits (GE Healthcare Bio-Sciences Corp., Piscataway, N.J.).

The subject of the next test is COX-2. Put plainly: COX-2 protein expression by immunoblotting in TNF-α-exposed TSMCs. The note with it: TSMCs with TNF-α 100 ng/ml, FIG. 9(B). (In general: A western blot detects proteins with antibodies after separation by electrophoresis.)
The test system of the next test is PGE2 and 6-keto-PGF1a. Briefly: PGE2 and 6-keto-PGF1a release from TNF-α-exposed TSMCs (EIA). Conditions: 10 μM, 20 min pretreatment, then TNF-α 100 ng/ml for 24 hrs; FIG. 12. The method, then:
as §1, §2
Incubation of TSMCs with TNF-α (100 ng/ml) increased the releases of PGs, PGE2 and 6-keto-PGF1a, a PGI2 stable metabolite, and the greatest increases occurred were measured at 24 hr. Please refer to the FIG. 12, TSMCs were pretreated with KMUP-1 (10 μM), KMUP-3 (10 μM), dexamethasone (1 μM) and zaprinast (10 μM) for 20 minutes, and were further incubated in the presence of TNF-α (100 ng/ml) for 24 hrs, where the concentrations of PGE2 and 6-keto-PGF1a (stable metabolite of […]) in the culture medium were measured using PGE2 and 6-keto-PGF1a EIA assay kits (Cayman Chemical Co., Ann Arbor, Mich.) in duplicate.

In the next test the test system is PKG. Briefly: PKG protein expression by immunoblotting in TNF-α-exposed TSMCs. The note with it: TSMCs with TNF-α 100 ng/ml; for effect on TNF-α-induced decreases of PKG protein: 10 μM, FIG. 8; for effect on TNF-α-induced decreases of PKG protein expression: concentration series, FIG. 7(B) as cited in text. On the procedure:
as §1, §2
(§4) To investigate the effects of TNF-α on PKG and PKA proteins, TSMCs were incubated with TNF-α (100 ng/ml) for 1, 3, 6, 9, 12, 18 and 24 hr, and the levels of PKG and PKA proteins were measured by immunoblotting. […] To investigate the effects of KMUP-1, KMUP-3, and the other PDE5 inhibitors zaprinast and exogenous 8-Br-cGMP on the TNF-α mediated pathway, TSMCs were incubated with TNF-α (100 ng/ml) and either one of the mentioned chemicals.

The subject of another test is nitrite/nitrate (NO). Put plainly: NO level measured by nitrite/nitrate in TSMC culture medium (colorimetric assay). The note with it: 10 μM, 20 min pretreatment, then TNF-α 100 ng/ml for 9 hrs; FIG. 11. The method, then: as §1, §2
Exposure of TSMCs to TNF-α (100 ng/ml) for 9 hrs led to accumulation of nitrite and nitrate in the culture medium, indicating the release of NO. Please refer to the FIG. 11, TSMCs were pretreated with KMUP-1, KMUP-3, 8-Br-cGMP and zaprinast for 20 minutes, and were further incubated in the presence of TNF-α (100 ng/ml) for 9 hrs. The concentrations of nitrite and nitrate (stable breakdown product of NO) of each sample were analyzed using nitrite/nitrate colorimetric assay kits (Cayman Chemical Co.) and run in duplicate.

The next test has as its system iNOS. Put plainly: iNOS protein expression by immunoblotting in TNF-α-exposed TSMCs. The note with it: TSMCs with TNF-α 100 ng/ml. The method, then:
as §1, §2
(§5) To investigate the effects of TNF-α on iNOS and sGC proteins, TSMCs were incubated with TNF-α (100 ng/ml) for 1, 3, 6, 9, 12, 18 and 24 hr, and the levels of iNOS and sGC subunit proteins were measured by immunoblotting. […] In contrast to the increase expression of iNOS protein in FIG. 2, TNF-α in FIG. 3 decreased the expression of sGCα1 and sGCβ1 proteins in a time-dependent manner, with the maximal inhibition achieved at 9 hr. To investigate the effects of KMUP-1, KMUP-3, and the other PDE5 inhibitors zaprinast and exogenous 8-Br-cGMP on the TNF-α mediated pathway, TSMCs were incubated with TNF-α (100 ng/ml) and either one of the mentioned chemicals.

A further test relates to PKA. Put plainly: PKA protein expression by immunoblotting in TNF-α-exposed TSMCs. Conditions: TSMCs with TNF-α 100 ng/ml; for effect on TNF-α-induced increases of PKA protein: 10 μM, FIG. 8; for effect on TNF-α-increased expression of PKA protein: 0.1-100 μM, FIG. 7(A) as cited in text. On the procedure:
as §1, §2, §4

The test system of a further test is sGCα1 and sGCβ1 proteins. Briefly: sGC subunit protein expression by immunoblotting in TNF-α-exposed TSMCs. Conditions: 10 μM; TSMCs with TNF-α 100 ng/ml; FIG. 5. The method, then: as §1, §2, §5
A further test concerns cGMP. Put plainly: Intracellular cGMP level in TSMCs (radioimmunoassay). Conditions: 10 μM, 20 min pretreatment, then TNF-α 100 ng/ml for 9 hrs; FIG. 10(A). The method, then: as §1
as §2, with “Cells were cultured in a condition with or without KMUP-1, KMUP-3 and other negative or positive control agents, in 25 cm^2 flasks at 37° C. in humidified air containing 5% CO2. The medium was changed every 2-3 days.” left out
as §3, with “As to the level of cGMP, TSMCs were pretreated with KMUP-1, KMUP-3, and the other PDE5 inhibitor zaprinast for 20 minutes and were further incubated in the presence of TNF-α (100 ng/ml) for 9 hrs.” left out

Where [1] appears, read: in the presence of TNF-α 100 ng/ml for 9 hrs.

Experimental for COX-2: The Wistar rats were injected intraperitoneally with a lethal dose of pentobarbital. The tracheas were excised and cut longitudinally through the cartilage. Using a dissecting microscope, TSM strips were dissected from the surrounding parenchyma. The epithelium was removed from the luminal surface, and bands of TSM were gently separated from the underlying connective tissue. The TSM strips were then chopped into small sections (1 mm^3) and incubated in Hank's balanced salt solution (NaCl, 138 mM; NaHCO3, 4 mM; KCl, 5 mM; KH2PO4, 0.3 mM; Na2HPO4, 0.3 mM; glucose, 1.0 mM) with 0.05% elastase type IV and 0.2% collagenase type IV (Invitrogen, Carlsbad, Calif.) for 30 min at 37° C. with gentle shaking. The solution of dissociated smooth muscle cells was centrifuged (6 min at 500 g) and the pellet was resuspended in 1:1 Dulbecco's modified Eagle's medium-Ham's F-12 medium supplemented with 10% fetal bovine serum (FBS), 0.244% NaHCO3, and 1% penicillin/streptomycin. […] The medium was changed every 2-3 days.
To investigate the effects of TNF-α on COX-2 protein, TSMCs were respectively incubated with or without TNF-α (100 ng/ml) for 1, 3, 6, 9, 12, 18 and 24 hr, and the levels of COX-2 proteins were measured by immunoblotting.

With `CC(C)NCC(O)c1ccc(O)c(O)c1` (stereo not shown) [isoproterenol, reference compound], in the test with cAMP (10 μM, in the absence of TNF-α), the “production of cAMP compared to the control group” value was “significantly increased”.

Regarding `CS(=O)(=O)Nc1ccc([N+](=O)[O-])cc1OC1CCCCC1` [NS-398, reference compound], the “inhibition of TNF-α-induced COX-2 expression” value with COX-2 (10 μM pretreatment) is given as “significantly inhibit”. Also, the “effect on TNF-α-induced PGE2 and 6-keto-PGF1a formation” value with PGE2 and 6-keto-PGF1a was “significantly inhibited”.

As to `Cn1c(=O)c2c(ncn2CCN2CCN(c3ccc([N+](=O)[O-])cc3)CC2)n(C)c1=O` [KMUP-3, 7-[2-[4-(4-nitrobenzene)piperazinyl]ethyl]-1,3-dimethylxanthine], in the test with PKG, the “effect on TNF-α-induced decreases of PKG protein” value is on record as “reversed TNF-α-induced decreases of PKG protein” and the “effect on TNF-α-induced decreases of PKG protein expression” value is recorded as “reversed”. In addition, the “effect on TNF-α-induced production of nitrite/nitrate (NO levels)” value (“effect … of nitrite/nitrate (NO levels)” below) in the test on nitrite/nitrate (NO) was “inhibited”. Besides, the “effect on TNF-α-induced increases of iNOS expression” value with iNOS (10 μM, FIG. 4(B)) is recorded as “inhibited TNF-α-induced increases of iNOS expression to a similar extent”. In addition, in the test on iNOS (0.01-100 μM, FIG. 4(A)), the “effect on TNF-α-induced increases of iNOS expression” value is “inhibited TNF-α-induced increases of iNOS expression in a concentration-dependent manner”. In addition, in the test with COX-2, the “inhibition of TNF-α-induced COX-2 expression” value is on record as “not”. Further, in the test on cAMP (10 μM, in the absence of TNF-α), the “production of cAMP compared to the control group” value is listed as “significantly increased”. The “production of cAMP compared to the control group” value with cAMP (setting [1]) is “could not further increase”. Moreover, in the test on PKA, the “effect on TNF-α-induced increases of PKA protein” value is given as “could not affect TNF-α-induced increases of PKA protein” and the “effect on TNF-α-increased expression of PKA protein” value was “not further increased”. The “effect on TNF-α inhibition of sGCα1 and sGCβ1 protein expression” value (“effect on TNF-α inhibition” below) in the test with sGCα1 and sGCβ1 proteins is listed as “reversed”. In addition, the “effect on TNF-α-induced PGE2 and 6-keto-PGF1a formation” value in the test on PGE2 and 6-keto-PGF1a was “did not inhibit”. Further, the “effect on TNF-α-decreased intracellular cGMP” value in the test on cGMP is recorded as “reversed to the basal level”.

For `Nc1nc2c(nc(Br)n2[C@@H]2O[C@@H]3COP(=O)(O)O[C@H]3[C@H]2O)c(=O)[nH]1` [8-Br-cGMP, reference compound], the “effect on TNF-α-induced decreases of PKG protein” value in the test with PKG is “reversed TNF-α-induced decreases of PKG protein”. For the same compound, the “effect … of nitrite/nitrate (NO levels)” value with nitrite/nitrate (NO) was “inhibited”. Also, the “effect on TNF-α-induced increases of iNOS expression” value in the test with iNOS (10 μM, FIG. 4(B)) was “inhibited TNF-α-induced increases of iNOS expression to a similar extent”. The “effect on TNF-α inhibition” value in the test with sGCα1 and sGCβ1 proteins is “reversed”.

Regarding `CCCOc1ccccc1-c1nc2nn[nH]c2c(=O)[nH]1` [zaprinast, reference compound], the “effect on TNF-α-induced decreases of PKG protein” value in the test with PKG is recorded as “reversed TNF-α-induced decreases of PKG protein”. The “effect … of nitrite/nitrate (NO levels)” value in the test on nitrite/nitrate (NO) is “inhibited”. The “effect on TNF-α-induced increases of iNOS expression” value with iNOS (10 μM, FIG. 4(B)) is “inhibited TNF-α-induced increases of iNOS expression to a similar extent”. Also, in the test on PKA, the “effect on TNF-α-induced increases of PKA protein” value is “could not affect TNF-α-induced increases of PKA protein”. For the same compound, in the test on sGCα1 and sGCβ1 proteins, the “effect on TNF-α inhibition” value is “reversed”. Further, the “effect on TNF-α-decreased intracellular cGMP” value with cGMP is on record as “reversed to the basal level”.

Turning to `Nc1ncnc2c1nc(Br)n2[C@@H]1O[C@@H]2COP(=O)(O)O[C@H]2[C@H]1O` [8-Br-cAMP, reference compound], the “effect on TNF-α-induced increases of PKA protein” value with PKA is “could not affect TNF-α-induced increases of PKA protein”.

As for `Cn1c(=O)c2c(ncn2CCN2CCN(c3ccccc3Cl)CC2)n(C)c1=O` [KMUP-1, 7-[2-[4-(2-chlorobenzene)piperazinyl]ethyl]-1,3-dimethylxanthine], in the test on PKG, the “effect on TNF-α-induced decreases of PKG protein” value is on record as “reversed TNF-α-induced decreases of PKG protein” and the “effect on TNF-α-induced decreases of PKG protein expression” value is “reversed”. Besides, the “effect … of nitrite/nitrate (NO levels)” value with nitrite/nitrate (NO) is “inhibited”. In addition, the “effect on TNF-α-induced increases of iNOS expression” value with iNOS (10 μM, FIG. 4(B)) is “inhibited TNF-α-induced increases of iNOS expression to a similar extent”. In the test on iNOS (0.01-100 μM, FIG. 4(A)), the “effect on TNF-α-induced increases of iNOS expression” value is given as “inhibited TNF-α-induced increases of iNOS expression in a concentration-dependent manner”. Also, the “inhibition of TNF-α-induced COX-2 expression” value in the test on COX-2 is reported as “not”. The “production of cAMP compared to the control group” value with cAMP (10 μM, in the absence of TNF-α) is on record as “significantly increased”. The “production of cAMP compared to the control group” value in the test on cAMP (setting [1]) is “could not further increase”. Also, in the test with PKA, the “effect on TNF-α-induced increases of PKA protein” value is on record as “could not affect TNF-α-induced increases of PKA protein” and the “effect on TNF-α-increased expression of PKA protein” value was “not further increased”. Besides, the “effect on TNF-α inhibition” value with sGCα1 and sGCβ1 proteins is “reversed”. Further, the “effect on TNF-α-induced PGE2 and 6-keto-PGF1a formation” value in the test with PGE2 and 6-keto-PGF1a is reported as “did not inhibit”. Also, the “effect on TNF-α-decreased intracellular cGMP” value in the test on cGMP is on record as “reversed to the basal level”.
